Earlier results, collected in Sander's compilation of Henry's law constants (doi:10.1021/ci0256485).

Experiment: Henry solubility constant Hcp at 298.15 K (mol/(m3 Pa))
Settings: reference: Delgado and Alderete (2003); cited value

SMILES | Henry solubility constant Hcp
Cc1nnc(-c2ccccc2)c(=O)n1N [metamitron] | 2.2e+06
CCNc1nc(NC(C)C)nc(SC)n1 [ametryn] | 4100
